Laboratory results as given in patent US20250122171A1, “Substituted Amine Compounds, Compositions and Methods of Use” (Deep Apple Therapeutics, Inc., priority 2023, published 2025).

Molecular target: T1, human MRGPRX2 (Homo sapiens, UniProt Q96LB1)
T1 construct: expressed in transfected cells; host or cells: FlpIn TRex HEK293 (TRex-MRGPRX2-HEK), doxycycline-induced
T1 sequence (Q96LB1 1-330): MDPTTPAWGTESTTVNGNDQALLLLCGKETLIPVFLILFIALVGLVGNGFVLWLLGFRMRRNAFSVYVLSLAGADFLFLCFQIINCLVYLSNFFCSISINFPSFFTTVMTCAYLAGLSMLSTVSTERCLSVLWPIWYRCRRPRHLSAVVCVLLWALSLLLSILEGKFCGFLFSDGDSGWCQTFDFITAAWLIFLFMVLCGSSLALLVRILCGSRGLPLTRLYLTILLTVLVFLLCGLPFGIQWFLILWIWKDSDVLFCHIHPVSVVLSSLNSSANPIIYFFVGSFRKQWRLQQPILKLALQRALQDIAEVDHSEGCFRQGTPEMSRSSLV
Assay: MRGPRX2 Activity Assay (IP-1 HTRF, antagonist mode)
Assay type: cell-based
Conditions: FlpIn TRex-MRGPRX2-HEK293 cells; versus 1 μM Cortistatin-14 agonist; 30 minutes preincubation
Method: FlpIn TRex-MRGPRX2-HEK293 cells (herein TRex-MRPGRX2-HEK) stably transfected to express human MRGPRX2 were maintained at 37° C. with 5% CO2 and grown in DMEM supplemented with 10% FBS, 1% L-Glutamate, 1% penicillin/streptomycin, 100 ug/mL Hygromycin B, and 15 ug/mL Blasticidin.
GOI (MRGPRX2) expression was induced with 100 ng/mL of Doxycycline 18-24 hours prior to experiment, in flask. On the day of experiment, cells were lifted with TripLE Express and seeded in 384-well white walled opaque bottomed, assay plates, at 8,000 cells per well in 5 uL freshly made assay buffer (HBSS, 20 mM HEPES, 0.1% BSA and 10 mM LiCl). Compounds solubilized in 100% DMSO at 30 mM were serially diluted (1:4) first in 100% DMSO, and an intermediate plate of assay buffer was used to establish a final top concentration of 30 uM (in assay plate). Final DMSO concentration was kept constant at 1% across assay plates. […], at 30 mM stock concentration was solubilized in HBSS+0.1% BSA, stored at −20° C. in 5 μL aliquots and discarded after one freeze-thaw cycle. […].
Antagonist equilibrium was established with 30 minutes preincubation, followed by no wash, direct addition, and stimulation of agonist for 1 hour at 37° C./5% CO2. IP-1 standards and HTRF detection reagents were added according to the IP-one Gq kit protocol purchased from CisBio (part number 62IPAPEJ). The plate was read on an EnVision XCite plate reader. The HTRF ratio was then calculated from raw data (channel1/channel2×10,000) and analyzed using either GraphPad Prism or a custom Python script to calculate IC50 using Log[Antagonist] vs. response (4 parameter) nonlinear regression.

Molecule | IC50 [nM]
C[C@@H](C(=O)Nc1cn2c(n1)CC[C@H]2c1cc(F)cc(F)c1)N1CCC(F)(F)[C@H](c2ccc(=O)[nH]c2)C1 (single isomer, unassigned) [Compound 496] | 3470
C[C@@H](C(=O)Nc1cn([C@@H](C)c2cc(F)cc(F)c2)cn1)N1CCC(F)(F)[C@@H](c2cc[n+]([O-])cc2)C1 (single isomer, unassigned) [Compound 15] | > 10000
C[C@@H](C(=O)Nc1cn2c(n1)[C@H](O)C[C@@H]2c1cc(F)cc(F)c1)N1CCC(F)(F)[C@@H](c2ccc(=O)[nH]c2)C1 (single isomer, unassigned) [Compound 515] | 4600
C[C@@H](C(=O)Nc1cn(Cc2ccc(F)c(F)c2)cn1)N1CCC(F)(F)[C@@H](c2cc[n+]([O-])cc2)C1 [Compound 46, 4-((S)-1-((S)-1-((1-(3,4-difluorobenzyl)-1H-imidazol-4-yl)amino)-1-oxopropan-2-yl)-4,4-difluoropiperidin-3-yl)pyridine 1-oxide] | 210
O=C(Nc1cn(Cc2cc(F)cc(F)c2)cn1)[C@H]1C(F)(F)C12CCC2 [Compound 30, (S)—N-(1-(3,5-difluorobenzyl)-1H-imidazol-4-yl)-2,2-difluorospiro[2.3]hexane-1-carboxamide] | 258
CNCc1cc(C2CN([C@@H](C)C(=O)Nc3cn4c(n3)CC[C@@H]4c3cc(F)cc(F)c3)CCC2(F)F)c[nH]c1=O (stereo partly drawn) [Compound 529, (2S)-2-(4,4-difluoro-3-(5-((methylamino)methyl)-6-oxo-1,6-dihydropyridin-3-yl)piperidin-1-yl)-N—((R)-5-(3,5-difluorophenyl)-6,7-dihydro-5H-pyrrolo[1,2-a]imidazol-2-yl)propanamide] | 80
C[C@@H](C(=O)Nc1cn(Cc2cc(F)cc(F)c2)c(CF)n1)N1CCC(F)(F)[C@@H](c2cc[n+]([O-])cc2)C1 (single isomer, unassigned) [Compound 60] | > 30000
C[C@@H](C(=O)Nc1cn2c(n1)CC[C@@H]2c1cc(F)cc(F)c1)N1CCC(F)(F)[C@H](c2c[nH]c(=O)cn2)C1 (single isomer, unassigned) [Compound 528] | 6.8
C[C@@H](C(=O)Nc1cc2n(n1)CC[C@@H]2c1cc(F)cc(F)c1)N1CCC(F)(F)[C@@H](c2cc[n+]([O-])cc2)C1 (single isomer, unassigned) [Compound 549] | 439
C[C@@H](C(=O)Nc1coc(Cc2cc(F)cc(F)c2)n1)N1CCC(F)(F)[C@@H](c2cc[n+]([O-])cc2)C1 (single isomer, unassigned) [Compound 27] | 587
C[C@@H](C(=O)Nc1cn(Cc2cc(F)c(F)c(F)c2F)cn1)N1CCC(F)(F)[C@@H](c2cc[n+]([O-])cc2)C1 [Compound 32, 4-[(3S)-4,4-difluoro-1-[(1S)-1-({1-[(2,3,4,5-tetrafluorophenyl)methyl]imidazol-4-yl}carbamoyl)ethyl]piperidin-3-yl]pyridin-1-ium-1-olate] | 104
(S)-2-((S)-4,4-difluoro-3-(6-oxo-1,6-dihydropyridin-3-yl)piperidin-1-yl)-N-(1-(3,5-difluorobenzyl)-1H-imidazol-4-yl)propanamide [Compound 76] | 2220
Cc1nc(NC(=O)[C@@H](C)N2CCC(F)(F)[C@@H](c3cc[n+]([O-])cc3)C2)cn1Cc1ccc(F)cc1F (single isomer, unassigned) [Compound 10] | 1610
C[C@H](C(=O)Nc1cn(Cc2ccc(F)cc2F)cn1)N1CCC(F)(F)[C@H](c2cc[n+]([O-])cc2)C1 (single isomer, unassigned) [Compound 4] | > 10000
C[C@@H](C(=O)Nc1cn2c(n1)CC[C@@H]2c1cc(F)cc(F)c1)N1CCC(F)(F)[C@@](C)(c2cc[n+]([O-])cc2)C1 (single isomer, unassigned) [Compound 519] | > 30000
C[C@H](C(=O)Nc1cn(Cc2ccc(F)cc2F)c(C(F)(F)F)n1)N1CCC(F)(F)[C@@H](c2cc[n+]([O-])cc2)C1 (single isomer, unassigned) [Compound 8] | 9290
C[C@@H](C(=O)Nc1nc(Cc2cc(F)cc(F)c2)no1)N1CCC(F)(F)[C@@H](c2cc[n+]([O-])cc2)C1 (single isomer, unassigned) [Compound 58] | > 10000

Molecule | IC50 [nM]
C[C@@H](C(=O)Nc1cn(Cc2cccc(Cl)c2Cl)cn1)N1CCC(F)(F)[C@@H](c2cc[n+]([O-])cc2)C1 [Compound 66, 4-((S)-1-((S)-1-((1-(2,3-dichlorobenzyl)-1H-imidazol-4-yl)amino)-1-oxopropan-2-yl)-4,4-difluoropiperidin-3-yl)pyridine 1-oxide] | 71
C[C@@H](C(=O)Nc1cn2c(n1)CC[C@@H]2c1cc(F)cc(F)c1)N1CCC(F)(F)[C@@H](c2c[nH]c(=O)cn2)C1 (single isomer, unassigned) [Compound 527] | 102
C[C@H](C(=O)Nc1noc(Cc2cc(F)cc(F)c2)n1)N1CCC(F)(F)[C@@H](c2cc[n+]([O-])cc2)C1 (single isomer, unassigned) [Compound 57] | > 10000
C[C@H](C(=O)Nc1cn(Cc2cc(F)cc(F)c2)cn1)N1CCC(F)(F)[C@H](c2c[nH]c(=O)c(CO)c2)C1 (single isomer, unassigned) [Compound 74] | > 30000
C[C@@H](C(=O)Nc1cn(Cc2cc(F)cc(F)c2)cn1)N1CCC(F)(F)[C@H](c2ccc(=O)n(C)c2)C1 (single isomer, unassigned) [Compound 69] | > 30000
C[C@@H](C(=O)Nc1cn2c(n1)CC[C@@H]2c1cc(F)cc(F)c1)N1CCC(F)(F)[C@@H](c2cc[n+]([O-])c(CO)c2)C1 (single isomer, unassigned) [Compound 525] | 5480
C[C@@H](C(=O)Nc1cn2c(n1)CC[C@@H]2c1cc(F)cc(F)c1)N1CCC(F)(F)[C@@H](c2c[nH]c(=O)c(CO)c2)C1 (single isomer, unassigned) [Compound 523] | > 30000
C[C@@H](C(=O)Nc1cn2c(n1)CC[C@@H]2c1cc(F)cc(F)c1)N1CCC(F)(F)[C@H](c2ccc(=O)n(C)c2)C1 (single isomer, unassigned) [Compound 533] | 18
(2S)-2-[(3R)-4,4-difluoro-3-(1-methyl-6-oxopyridin-3-yl)piperidin-1-yl]-N-{1-[(3,5-difluorophenyl)methyl]imidazol-4-yl}propanamide [Compound 78] | > 30000
Cc1nc(NC(=O)[C@@H](C)N2CCC(F)(F)[C@@H](c3cc[n+]([O-])cc3)C2)cn1Cc1cc(F)cc(F)c1 (single isomer, unassigned) [Compound 20] | 193
C[C@@H](C(=O)Nc1cn(Cc2cccc(Cl)c2F)cn1)N1CCC(F)(F)[C@@H](c2cc[n+]([O-])cc2)C1 [Compound 64, 4-((S)-1-((S)-1-((1-(3-chloro-2-fluorobenzyl)-1H-imidazol-4-yl)amino)-1-oxopropan-2-yl)-4,4-difluoropiperidin-3-yl)pyridine 1-oxide] | 78
C[C@@H](C(=O)Nc1cn(Cc2cc(F)cc(F)c2)cn1)N1CCC(F)(F)[C@@H](c2cc[n+]([O-])cc2)C1 (single isomer, unassigned) [Compound 6] | 1780
C[C@H](c1cc(F)cc(F)c1)n1cnc(NC(=O)[C@H](C)N2CCC(F)(F)[C@@H](c3cc[n+]([O-])cc3)C2)c1 (single isomer, unassigned) [Compound 14] | 465
C[C@@H](C(=O)Nc1cn2c(n1)CC[C@@H]2c1cc(F)cc(F)c1)N1CCC(F)(F)[C@H](c2ccc(=O)[nH]c2)C1 (single isomer, unassigned) [Compound 495] | > 30000
C[C@@H](C(=O)Nc1cn(Cc2cc(Cl)cc(Cl)c2)cn1)N1CCC(F)(F)[C@@H](c2cc[n+]([O-])cc2)C1 [Compound 50, 4-((S)-1-((S)-1-((1-(3,5-dichlorobenzyl)-1H-imidazol-4-yl)amino)-1-oxopropan-2-yl)-4,4-difluoropiperidin-3-yl)pyridine 1-oxide] | 45
C[C@@H](C(=O)Nc1cn(Cc2cc(F)cc(F)c2)cn1)N1CCC(F)(F)[C@@H](c2ccc(=O)n(C)c2)C1 (single isomer, unassigned) [Compound 67] | 4330
C[C@@H](C(=O)Nc1cn(Cc2cccc(F)c2Cl)cn1)N1CCC(F)(F)[C@@H](c2cc[n+]([O-])cc2)C1 [Compound 51, 4-((S)-1-((S)-1-((1-(2-chloro-3-fluorobenzyl)-1H-imidazol-4-yl)amino)-1-oxopropan-2-yl)-4,4-difluoropiperidin-3-yl)pyridine 1-oxide] | 34
